Data published in publication PMC8151276, “An Integrated Approach toward NanoBRET Tracers for Analysis of GPCR Ligand Engagement” (Molecules, 2021).

Key:
Assay type in all cases: binding
[1] = target: T1, OXER1 (Homo sapiens, UniProt Q8TDS5); assay: NanoBRET screen HiBiT-OXER1 in HEK293; settings: OXER1
T1 construct: purchased Promega (in-house HiBiT-GPCR construct library, NanoBRET)
Protocol: (§1) Each tracer candidate was screened across the entire library of HiBiT-GPCR constructs using NanoBRET as the detection modality. As depicted in Figure 4A, the specificity of interactions was evaluated through decrease in BRET due to competitive displacement of a bound tracer by excess parental compound. Each tracer was analyzed for binding to each HiBiT-GPCR fusion in the absence and in the presence of competing parental compound. Briefly, HEK293 cells were transfected with HiBiT-GPCR constructs diluted into promoterless DNA to reduce expression and maximize translocation to the cell surface. Each tracer candidate was then screened at concentrations of 1 μM and 0.1 μM across cells expressing these fusions. Cells were treated for 1.5 h with tracer either alone or in the presence of 20 μM competing parental compound (i.e., control). BRET was measured upon addition of purified LgBiT and subsequent complementation with HiBiT genetically fused to a GPCR. The specificity of interactions was assessed through a decrease in BRET signal due to competitive displacement of the bound tracer. To further gauge the robustness of these interactions, the fold response over the control (i.e., BRETtracer/BRETcontrol) was calculated. We chose a 1.5-fold response, which translates to ≥7-fold signal over noise as the minimal threshold required to score an interaction as positive. […]. Below we highlight the screening results obtained for our exemplary fluorescent tracers based on Clozapine, Amitriptyline and AZD1283.
(§2) HiBiT-GPCR DNA constructs were diluted in 10 mM Tris pH 8 to a final concentration of 0.01 μg/μL, arrayed in 96-well plates and stored at −20 °C. For transfection, HEK293 cells were suspended in Opti-MEM (without phenol red) supplemented with 2% fetal bovine serum (Seradigm) and 100 units/mL penicillin–streptomycin (Gibco) at a final concentration of 220,000 cells/mL and dispensed into white 96-well plates at 90 μL/well. Subsequent transfections and screens were carried using an Agilent Bravo Automated Liquid Handling Platform. First, the 96-well HiBiT DNA arrays were diluted 25-fold in Opti-MEM (without serum or phenol red) to a final concentration of 0.0004 μg/μL and 20 μL of the diluted DNAs were transferred into new 96-well plates. Next, promoterless carrier DNA (1 μg/μL) was diluted 25-fold (0.04 μg/μL) and then dispensed into the diluted arrays at 20 μL/well. Following brief mixing, Viafect transfection reagent (Promega) diluted 16-fold into Opti-MEM was dispensed into the plates at 40 μL/well. After mixing by pipetting, plates were incubated for 10 min on the pipetting station deck. The DNA-transfection reagent complexes were then added to plates containing cells. To facilitate the screen, 10 μL of DNA-transfection reagent complexes were added in duplicates to the top 4 and bottom 4 rows, resulting in two identical 48-well arrays per plate. Plates with transfected cells were incubated for 18–20 h at 37 °C/5% CO2. A screen of each tracer across the entire library using two different concentrations requires duplicate plates of transfected cells. Depending on the number of tracers being screened, transfections can be scaled up using the same ratios. The next day, for each tracer, four 20× screening solutions in tracer dilution buffer (Promega) were prepared: two duplicates at final concentration of 20 μM and two duplicates at a final concentration of 2 μM. A competing unmodified compound was added to one of each duplicate at a final concentration of 400 μM. The four resulting solutions were diluted 4-fold in Opti-MEM without serum or phenol red to generate 5× solutions (5 µM and 0.5 µM tracer +/− 100 μM competing compound). To screen the library, a BioTek MultiFlo FX liquid dispenser was used to dispense 22.5 µL of tracer solution to the top 4 rows and 22.5 µL tracer + competing compound solution to the 4 bottom rows. Plates were briefly mixed on an orbital shaker and incubated for 1.5 h at room temperature. […]

[2] = target: T2, HRH2 (Homo sapiens, UniProt P25021); assay: NanoBRET screen HiBiT-HRH2 in HEK293; settings: HRH2
T2 construct: purchased Promega (in-house HiBiT-GPCR construct library, NanoBRET)
Protocol: as §1, §2

[3] = target: T3, CCKAR (Homo sapiens, UniProt P32238); assay: NanoBRET screen HiBiT-CCKAR in HEK293; settings: CCKAR
T3 construct: purchased Promega (in-house HiBiT-GPCR construct library, NanoBRET)
T3 sequence (P32238 1-428): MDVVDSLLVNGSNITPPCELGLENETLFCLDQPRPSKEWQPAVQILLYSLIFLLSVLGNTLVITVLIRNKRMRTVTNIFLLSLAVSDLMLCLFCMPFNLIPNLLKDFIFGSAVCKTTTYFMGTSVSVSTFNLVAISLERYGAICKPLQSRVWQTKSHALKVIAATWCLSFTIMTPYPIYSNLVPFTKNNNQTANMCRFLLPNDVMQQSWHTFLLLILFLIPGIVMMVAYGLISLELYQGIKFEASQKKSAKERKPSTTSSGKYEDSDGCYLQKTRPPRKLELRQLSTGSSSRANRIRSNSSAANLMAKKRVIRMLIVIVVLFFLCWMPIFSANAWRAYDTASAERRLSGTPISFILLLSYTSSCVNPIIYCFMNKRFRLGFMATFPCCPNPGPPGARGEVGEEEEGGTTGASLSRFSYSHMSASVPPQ
Protocol: as §1, §2

[4] = target: T4, GHSR (Homo sapiens, UniProt Q92847); assay: NanoBRET screen HiBiT-GHSR in HEK293; settings: GHSR
T4 construct: purchased Promega (in-house HiBiT-GPCR construct library, NanoBRET)
Protocol: as §1, §2

[5] = target: T5, C5AR1 (Homo sapiens, UniProt P21730); assay: NanoBRET screen HiBiT-C5AR1 in HEK293; settings: C5AR1
T5 construct: purchased Promega (in-house HiBiT-GPCR construct library, NanoBRET)
T5 sequence (P21730 1-350): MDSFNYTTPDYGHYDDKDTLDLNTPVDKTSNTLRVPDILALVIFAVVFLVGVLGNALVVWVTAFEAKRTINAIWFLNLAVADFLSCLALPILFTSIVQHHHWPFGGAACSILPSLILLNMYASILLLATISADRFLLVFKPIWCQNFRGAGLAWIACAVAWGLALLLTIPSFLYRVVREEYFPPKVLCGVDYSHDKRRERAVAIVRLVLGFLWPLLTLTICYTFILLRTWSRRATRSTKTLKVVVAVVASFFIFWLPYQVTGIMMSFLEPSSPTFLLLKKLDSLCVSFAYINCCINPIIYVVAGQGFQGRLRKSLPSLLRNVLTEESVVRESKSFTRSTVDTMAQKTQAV
Protocol: as §1, §2

T4 sequence (Q92847 whole entry): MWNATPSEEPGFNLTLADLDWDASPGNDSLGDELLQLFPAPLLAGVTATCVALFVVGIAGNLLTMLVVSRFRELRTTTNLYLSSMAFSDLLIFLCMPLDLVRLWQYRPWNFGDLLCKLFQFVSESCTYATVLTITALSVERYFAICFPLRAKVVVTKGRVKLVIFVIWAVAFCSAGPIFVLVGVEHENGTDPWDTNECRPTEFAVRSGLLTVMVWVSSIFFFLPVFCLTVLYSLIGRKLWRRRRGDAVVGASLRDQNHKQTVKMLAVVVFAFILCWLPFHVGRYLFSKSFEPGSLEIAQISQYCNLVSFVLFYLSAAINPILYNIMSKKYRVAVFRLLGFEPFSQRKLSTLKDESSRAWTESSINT
T1 sequence (Q8TDS5 whole entry): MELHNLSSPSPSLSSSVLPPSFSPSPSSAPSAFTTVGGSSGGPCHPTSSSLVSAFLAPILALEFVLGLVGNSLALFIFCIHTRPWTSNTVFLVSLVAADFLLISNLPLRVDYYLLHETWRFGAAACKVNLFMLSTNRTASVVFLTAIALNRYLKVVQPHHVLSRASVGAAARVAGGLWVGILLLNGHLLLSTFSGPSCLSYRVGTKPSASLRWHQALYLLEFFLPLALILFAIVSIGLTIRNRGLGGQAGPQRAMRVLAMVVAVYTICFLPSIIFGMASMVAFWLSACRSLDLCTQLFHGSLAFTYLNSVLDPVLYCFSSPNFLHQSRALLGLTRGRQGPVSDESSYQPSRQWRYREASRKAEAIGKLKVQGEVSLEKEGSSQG
T2 sequence (P25021 whole entry): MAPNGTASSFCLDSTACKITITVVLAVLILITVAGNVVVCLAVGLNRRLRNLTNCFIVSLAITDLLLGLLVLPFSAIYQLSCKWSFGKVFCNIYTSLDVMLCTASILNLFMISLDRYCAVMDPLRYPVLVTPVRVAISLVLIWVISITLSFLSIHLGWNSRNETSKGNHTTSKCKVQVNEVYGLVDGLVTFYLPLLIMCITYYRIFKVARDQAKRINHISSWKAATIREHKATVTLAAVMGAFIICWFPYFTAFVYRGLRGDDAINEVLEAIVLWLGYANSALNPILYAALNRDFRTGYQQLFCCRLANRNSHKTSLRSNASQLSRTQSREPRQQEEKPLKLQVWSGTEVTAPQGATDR

SMILES | NanoBRET Fold Response ([1]; tracer 0.1μM) | NanoBRET Fold Response ([1]; tracer 1μM) | NanoBRET Fold Response ([2]; tracer 0.1μM) | NanoBRET Fold Response ([2]; tracer 1μM) | NanoBRET Fold Response ([3]; tracer 0.1μM) | NanoBRET Fold Response ([3]; tracer 1μM) | NanoBRET Fold Response ([4]; tracer 0.1μM) | NanoBRET Fold Response ([4]; tracer 1μM) | NanoBRET Fold Response ([5]; tracer 0.1μM) | NanoBRET Fold Response ([5]; tracer 1μM) | NanoBRET Fold Response ([1]; 0.1μM) | NanoBRET Fold Response ([1]; 1μM) | NanoBRET Fold Response ([2]; 0.1μM) | NanoBRET Fold Response ([2]; 1μM) | NanoBRET Fold Response ([3]; 0.1μM) | NanoBRET Fold Response ([3]; 1μM) | NanoBRET Fold Response ([4]; 0.1μM) | NanoBRET Fold Response ([4]; 1μM) | NanoBRET Fold Response ([5]; 0.1μM) | NanoBRET Fold Response ([5]; 1μM)
O=C(CCOCCOCCOCCOCCNC(=O)CCc1ccc2n1[B-](F)(F)[N+]1=C(c3ccc[nH]3)C=CC1=C2)NCCCN1CCN(C2=Nc3ccccc3Oc3ccc(Cl)cc32)CC1 [Loxapine-a-2-NB590] | 0.93 | 1.09 | 0.79 | 1.06 | 1.02 | 0.99 | 0.97 | 1.09 | 1.01 | 0.98 | – | – | – | – | – | – | – | – | – | –
COc1ccccc1N1CCN(CCCCN2C(=O)c3ccc(CNC(=O)CCOCCOCCOCCOCCNC(=O)CCc4ccc5n4[B-](F)(F)[N+]4=C(c6ccc[nH]6)C=CC4=C5)cc3C2=O)CC1 [NAN-190-2-NB590] | 0.95 | – | 0.94 | – | 0.98 | 0.96 | 1.01 | 1.02 | 1.03 | 1.04 | – | – | – | – | – | – | – | – | – | –
COc1ccccc1N1CCN(CCCCN2C(=O)c3ccc(CNC(=O)CCOCCNC(=O)c4ccc(CNC(=O)CCc5ccc6n5[B-](F)(F)[N+]5=C(c7ccc[nH]7)C=CC5=C6)cc4)cc3C2=O)CC1 [NAN-190-3-NB590] | 1.34 | 0.63 | 1.07 | 1.08 | 0.98 | 0.99 | 0.86 | 1.06 | 1.02 | 1.10 | – | – | – | – | – | – | – | – | – | –
O=C(CCc1ccc2n1[B-](F)(F)[N+]1=C(c3ccc[nH]3)C=CC1=C2)NCc1ccc(C(=O)NCCOCCC(=O)N[C@@H]2CC[C@@]3(O)[C@H]4Cc5ccc(O)c6c5[C@@]3(CCN4CC3CC3)[C@H]2O6)cc1 [Naltrexone-3-NB590] | 0.78 | 0.74 | 0.85 | 1.34 | 1.10 | 1.05 | 1.01 | 0.90 | 0.94 | 0.93 | – | – | – | – | – | – | – | – | – | –
Cc1cc2c(s1)Nc1ccccc1N=C2N1CCN(CCCNC(=O)CCOCCOCCOCCOCCNC(=O)CCc2ccc3n2[B-](F)(F)[N+]2=C(c4ccc[nH]4)C=CC2=C3)CC1 [Olanzapine-a-2-NB590] | 0.96 | 1.04 | 0.89 | 0.85 | 1.02 | 1.04 | 0.96 | 0.98 | 1.06 | 1.09 | – | – | – | – | – | – | – | – | – | –
O=C(CCc1ccc2n1[B-](F)(F)[N+]1=C(c3ccc[nH]3)C=CC1=C2)NCc1ccc(C(=O)NCCOCCOCCNCC(O)COc2cccc3ccccc23)cc1 (centres unmarked) [Propranolol-3-NB590] | – | – | – | – | – | – | – | – | – | – | 1.09 | 1.00 | 1.12 | 0.97 | 0.99 | 0.98 | 0.98 | 0.97 | 1.05 | 1.03
O=C(CCc1ccc2n1[B-](F)(F)[N+]1=C(c3ccc[nH]3)C=CC1=C2)NCCOCCOCCNC(=O)OCCOCCN1CCN(C2=Nc3ccccc3Sc3ccccc32)CC1 [Quetiapine-a-2-NB590] | 0.99 | 0.98 | 0.81 | 1.05 | 1.04 | 0.94 | 0.97 | 0.77 | 1.07 | 0.84 | – | – | – | – | – | – | – | – | – | –
Cc1nc2n(c(=O)c1CCN1CCC(c3noc4cc(F)ccc34)CC1)CCCC2OC(=O)NCCOCCOCCOCCOCCNC(=O)CCc1ccc2n1[B-](F)(F)[N+]1=C(c3ccc[nH]3)C=CC1=C2 (centres unmarked) [Risperidone-2-NB590] | 1.03 | 1.18 | 1.05 | 1.13 | 1.20 | 0.99 | 1.06 | 1.02 | 0.95 | 0.99 | – | – | – | – | – | – | – | – | – | –
CC(C)N(CC[C@H](c1ccccc1)c1cc(CCNC(=O)CCOCCOCCOCCOCCNC(=O)CCc2ccc3n2[B-](F)(F)[N+]2=C(c4ccc[nH]4)C=CC2=C3)ccc1O)C(C)C [Tolterodine-2-NB590] | 0.73 | 1.09 | 1.06 | 0.82 | 1.01 | 1.01 | 0.95 | 1.11 | 0.95 | 1.08 | – | – | – | – | – | – | – | – | – | –
CC(C)N(CC[C@H](c1ccccc1)c1cc(CCNC(=O)c2ccc(CNC(=O)CCc3ccc4n3[B-](F)(F)[N+]3=C(c5ccc[nH]5)C=CC3=C4)cc2)ccc1O)C(C)C [Tolterodine-BZ-NB590] | 1.00 | 1.06 | 1.05 | 0.87 | 1.05 | 1.03 | 1.00 | 1.06 | 1.01 | 1.11 | – | – | – | – | – | – | – | – | – | –
